Data taken from patent US6358885B1, “Substituted phenylheterocyclic herbicides” (Mississippi State University, priority 1992, dated 2002).

Assays:
umbrella sedge = assay: Test C flood test plant response rating 0 to 100; type: in vivo, Cyperus difformis; settings: for Plant response rating Umbrella sedge: flood test species listed under POSTEMERGENCE, 62 g/ha, 0 to 100 scale
In short: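 Compounds in non-phytotoxic solvent applied preemergence to sandy loam one day after planting, postemergence at the 1–4 leaf stage, or to ~2.5 cm floodwater over silt loam.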

soybean [1] = assay: Test C preemergence/postemergence greenhouse plant response rating 0 to 100; type: in vivo, Glycine max; settings: POSTEMERGENCE; for Plant response rating, Soybean: 62 g/ha, 0 to 100 scale
In short: (§1)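 Compounds in non-phytotoxic solvent went onto sandy loam before emergence (seeded one day earlier) or onto plants at the one-to-four leaf stage. Duck salad was treated via flood water (~2.5 cm, maintained) over silt loam.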

rape = assay: as above; type: in vivo, Brassica napus; settings: POSTEMERGENCE; for Plant response rating, Rape: 62 g/ha, 0 to 100 scale
In short: as §1

wild buckwheat = assay: Test B preemergence/postemergence greenhouse plant response rating 0 to 10; type: in vivo, Polygonum convolvulus; settings: 0 to 10 scale
In short: (§2)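 Planted seeds are treated preemergence with compound dissolved in a non-phytotoxic solvent, while postemergence applications go onto plants of two to eighteen cm. Plants stay in the greenhouse twelve to sixteen days and are then rated visually relative to controls.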

morningglory = assay: Test C preemergence/postemergence greenhouse plant response rating 0 to 100; type: in vivo, Ipomoea hederacea; settings: POSTEMERGENCE; for Plant response rating, Morningglory: 62 g/ha, 0 to 100 scale
In short: as §1

lambsquarters [2] = assay: as above; type: in vivo, Chenopodium album; settings: POSTEMERGENCE; for Plant response rating Lambsquarters: 62 g/ha, 0 to 100 scale
In short: as §1

barley = assay: as above; type: in vivo, Hordeum vulgare; settings: POSTEMERGENCE; for Plant response rating Barley Igri: 62 g/ha, 0 to 100 scale
In short: as §1

purple nutsedge = assay: Test B preemergence/postemergence greenhouse plant response rating 0 to 10; type: in vivo, Cyperus rotundus; settings: 0 to 10 scale
In short: as §2

cotton = assay: as above; type: in vivo, Gossypium hirsutum; settings: for Plant response rating, Cotton: 0 to 10 scale
In short: as §2

rice = assay: as above; type: in vivo, Oryza sativa; settings: 0 to 10 scale
In short: as §2

velvetleaf [3] = assay: Test C preemergence/postemergence greenhouse plant response rating 0 to 100; type: in vivo, Abutilon theophrasti; settings: POSTEMERGENCE; for Plant response rating, Velvetleaf: 62 g/ha, 0 to 100 scale
In short: as §1

cheatgrass = assay: Test B preemergence/postemergence greenhouse plant response rating 0 to 10; type: in vivo, Bromus secalinus; settings: for Plant response rating, Cheatgrass: 0 to 10 scale
In short: as §2

soybean [4] = assay: as above; type: in vivo, Glycine max; settings: 0 to 10 scale
In short: as §2

velvetleaf [5] = assay: as above; type: in vivo, Abutilon theophrasti; settings: 0 to 10 scale
In short: as §2

lambsquarters [6] = assay: as above; type: in vivo, Chenopodium album; settings: 0 to 10 scale
In short: as §2

sorghum = assay: Test C preemergence/postemergence greenhouse plant response rating 0 to 100; type: in vivo, Sorghum bicolor; settings: POSTEMERGENCE; for Plant response rating, Sorghum: 62 g/ha, 0 to 100 scale
In short: as §1

corn = assay: as above; type: in vivo, Zea mays; settings: POSTEMERGENCE; for Plant response rating, Corn: 62 g/ha, 0 to 100 scale
In short: as §1

sugar beet = assay: as above; type: in vivo, Beta vulgaris; settings: POSTEMERGENCE; for Plant response rating, Sugar beet: 62 g/ha, 0 to 100 scale
In short: as §1

[7] = POSTEMERGENCE section, flood test, Rate 1 g/ha
[8] = POSTEMERGENCE section, flood test, Rate 4 g/ha
[9] = Rate 16 g/ha, under POSTEMERGENCE head (flood test species)

CCCN1C(=O)COc2cc(F)c(-c3nn4c(c3Cl)CCCC4)cc21 [Compound 32]
2: Plant response rating, Nutsedge (purple nutsedge; POSTEMERGENCE, Rate 10 g/ha) | Plant response rating, Cheatgrass (cheatgrass; PREEMERGENCE, Rate 10 g/ha)
50: Plant response rating (0 to 100), Soybean (soybean [1]; Rate 4 g/ha) | Plant response rating (0 to 100), Morningglory (morningglory; Rate 1 g/ha) | Plant response rating Barley Igri (barley) | Plant response rating (0 to 100), Sorghum (sorghum; Rate 16 g/ha) | Plant response rating, Corn (corn)
10: Plant response rating, Wild buckwheat (wild buckwheat; POSTEMERGENCE, Rate 50 g/ha) | Plant response rating, Cotton (cotton; POSTEMERGENCE, Rate 10 g/ha) | Plant response rating (0 to 10 scale), Cotton (cotton; POSTEMERGENCE, Rate 50 g/ha) | Plant response rating, Velvetleaf (velvetleaf [5]; POSTEMERGENCE, Rate 10 g/ha) | Plant response rating, Velvetleaf (velvetleaf [5]; POSTEMERGENCE, Rate 50 g/ha) | Plant response rating, Velvetleaf (velvetleaf [5]; PREEMERGENCE, Rate 50 g/ha) | Plant response rating, Lambsquarter (lambsquarters [6]; POSTEMERGENCE, Rate 10 g/ha) | Plant response rating, Lambsquarter (lambsquarters [6]; POSTEMERGENCE, Rate 50 g/ha) | Plant response rating, Lambsquarter (lambsquarters [6]; PREEMERGENCE, Rate 50 g/ha)
100: Plant response rating, Rape (rape) | Plant response rating, Morningglory (morningglory) | Plant response rating (0 to 100), Morningglory (morningglory; Rate 16 g/ha) | Plant response rating Lambsquarters (lambsquarters [2]) | Plant response rating (0 to 100), Lambsquarters (lambsquarters [2]; Rate 16 g/ha) | Plant response rating, Velvetleaf (velvetleaf [3]) | Plant response rating (0 to 100), Velvetleaf (velvetleaf [3]; Rate 1 g/ha) | Plant response rating (0 to 100), Velvetleaf (velvetleaf [3]; Rate 16 g/ha) | Plant response rating, Sugar beet (sugar beet) | Plant response rating (0 to 100), Sugar beet (sugar beet; Rate 4 g/ha) | Plant response rating (0 to 100), Sugar beet (sugar beet; Rate 16 g/ha)
9: Plant response rating, Wild buckwheat (wild buckwheat; POSTEMERGENCE, Rate 10 g/ha)
5: Plant response rating (0 to 10 scale), Cheatgrass (cheatgrass; POSTEMERGENCE, Rate 50 g/ha) | Plant response rating, Cheatgrass (cheatgrass; PREEMERGENCE, Rate 50 g/ha)
95: Plant response rating (0 to 100), Rape (rape; Rate 16 g/ha)
80: Plant response rating (0 to 100), Lambsquarters (lambsquarters [2]; Rate 4 g/ha) | Plant response rating (0 to 100), Sugar beet (sugar beet; Rate 1 g/ha)
40: Plant response rating (0 to 100), Sorghum (sorghum; Rate 4 g/ha) | Plant response rating (0 to 100), Corn (corn; Rate 16 g/ha)
8: Plant response rating, Wild buckwheat (wild buckwheat; PREEMERGENCE, Rate 50 g/ha) | Plant response rating, Cotton (cotton; PREEMERGENCE, Rate 50 g/ha) | Plant response rating, Soybean (soybean [4]; POSTEMERGENCE, Rate 50 g/ha)
70: Plant response rating (0 to 100), Soybean (soybean [1]; Rate 16 g/ha) | Plant response rating (0 to 100), Morningglory (morningglory; Rate 4 g/ha) | Plant response rating (0 to 100), Lambsquarters (lambsquarters [2]; Rate 1 g/ha)
1: Plant response rating, Rice (rice; PREEMERGENCE, Rate 50 g/ha)
85: Plant response rating (0 to 100), Rape (rape; Rate 4 g/ha)
20: Plant response rating (0 to 100), Umbrella sedge (umbrella sedge; [9]) | Plant response rating (0 to 100), Soybean (soybean [1]; Rate 1 g/ha) | Plant response rating (0 to 100), Barley Igri (barley; Rate 1 g/ha) | Plant response rating (0 to 100), Corn (corn; Rate 1 g/ha)
0: Plant response rating (0 to 100), Umbrella sedge (umbrella sedge; [7]) | Plant response rating (0 to 100), Umbrella sedge (umbrella sedge; [8]) | Plant response rating, Nutsedge (purple nutsedge; PREEMERGENCE, Rate 50 g/ha) | Plant response rating, Cotton (cotton; PREEMERGENCE, Rate 10 g/ha) | Plant response rating, Soybean (soybean [4]; PREEMERGENCE, Rate 50 g/ha)
60: Plant response rating Umbrella sedge (umbrella sedge) | Plant response rating (0 to 100), Rape (rape; Rate 1 g/ha) | Plant response rating, Sorghum (sorghum)
4: Plant response rating, Nutsedge (purple nutsedge; POSTEMERGENCE, Rate 50 g/ha) | Plant response rating, Rice (rice; POSTEMERGENCE, Rate 10 g/ha) | Plant response rating, Cheatgrass (cheatgrass; POSTEMERGENCE, Rate 10 g/ha)
30: Plant response rating (0 to 100), Barley Igri (barley; Rate 4 g/ha) | Plant response rating (0 to 100), Barley Igri (barley; Rate 16 g/ha) | Plant response rating (0 to 100), Sorghum (sorghum; Rate 1 g/ha) | Plant response rating (0 to 100), Corn (corn; Rate 4 g/ha)
90: Plant response rating, Soybean (soybean [1])
7: Plant response rating, Rice (rice; POSTEMERGENCE, Rate 50 g/ha) | Plant response rating, Soybean (soybean [4]; POSTEMERGENCE, Rate 10 g/ha)

C=CCN1C(=O)COc2cc(F)c(-c3nn4c(c3Cl)CCCC4)cc21 [Compound 33]
50: Plant response rating (0 to 100), Morningglory (morningglory; Rate 1 g/ha) | Plant response rating (0 to 100), Lambsquarters (lambsquarters [2]; Rate 1 g/ha) | Plant response rating (0 to 100), Barley Igri (barley; Rate 16 g/ha)
0: Plant response rating, Nutsedge (purple nutsedge; POSTEMERGENCE, Rate 10 g/ha) | Plant response rating, Nutsedge (purple nutsedge; PREEMERGENCE, Rate 50 g/ha) | Plant response rating, Cotton (cotton; PREEMERGENCE, Rate 10 g/ha) | Plant response rating, Cotton (cotton; PREEMERGENCE, Rate 50 g/ha) | Plant response rating (0 to 100), Sorghum (sorghum; Rate 1 g/ha)
10: Plant response rating (0 to 100), Umbrella sedge (umbrella sedge; [7]) | Plant response rating, Wild buckwheat (wild buckwheat; POSTEMERGENCE, Rate 10 g/ha) | Plant response rating, Wild buckwheat (wild buckwheat; POSTEMERGENCE, Rate 50 g/ha) | Plant response rating, Cotton (cotton; POSTEMERGENCE, Rate 10 g/ha) | Plant response rating, Cotton (cotton; POSTEMERGENCE, Rate 50 g/ha) | Plant response rating, Velvetleaf (velvetleaf [5]; POSTEMERGENCE, Rate 10 g/ha) | Plant response rating, Lambsquarter (lambsquarters [6]; POSTEMERGENCE, Rate 50 g/ha) | Plant response rating, Lambsquarter (lambsquarters [6]; PREEMERGENCE, Rate 50 g/ha)
2: Plant response rating, Soybean (soybean [4]; PREEMERGENCE, Rate 50 g/ha)
5: Plant response rating, Nutsedge (purple nutsedge; POSTEMERGENCE, Rate 50 g/ha)
100: Plant response rating, Soybean (soybean [1]) | Plant response rating, Rape (rape) | Plant response rating (0 to 100), Rape (rape; Rate 1 g/ha) | Plant response rating (0 to 100), Rape (rape; Rate 4 g/ha) | Plant response rating (0 to 100), Rape (rape; Rate 16 g/ha) | Plant response rating, Morningglory (morningglory) | Plant response rating Lambsquarters (lambsquarters [2]) | Plant response rating, Velvetleaf (velvetleaf [3]) | Plant response rating (0 to 100), Velvetleaf (velvetleaf [3]; Rate 4 g/ha) | Plant response rating (0 to 100), Velvetleaf (velvetleaf [3]; Rate 16 g/ha) | Plant response rating, Sugar beet (sugar beet) | Plant response rating (0 to 100), Sugar beet (sugar beet; Rate 1 g/ha) | Plant response rating (0 to 100), Sugar beet (sugar beet; Rate 4 g/ha) | Plant response rating (0 to 100), Sugar beet (sugar beet; Rate 16 g/ha)
6: Plant response rating, Rice (rice; POSTEMERGENCE, Rate 10 g/ha) | Plant response rating, Cheatgrass (cheatgrass; PREEMERGENCE, Rate 50 g/ha)
40: Plant response rating (0 to 100), Soybean (soybean [1]; Rate 4 g/ha) | Plant response rating (0 to 100), Barley Igri (barley; Rate 4 g/ha) | Plant response rating, Sorghum (sorghum) | Plant response rating, Corn (corn)
20: Plant response rating (0 to 100), Umbrella sedge (umbrella sedge; [8]) | Plant response rating (0 to 100), Barley Igri (barley; Rate 1 g/ha) | Plant response rating (0 to 100), Sorghum (sorghum; Rate 4 g/ha) | Plant response rating (0 to 100), Sorghum (sorghum; Rate 16 g/ha) | Plant response rating (0 to 100), Corn (corn; Rate 1 g/ha)
30: Plant response rating (0 to 100), Soybean (soybean [1]; Rate 1 g/ha) | Plant response rating (0 to 100), Corn (corn; Rate 4 g/ha) | Plant response rating (0 to 100), Corn (corn; Rate 16 g/ha)
70: Plant response rating (0 to 100), Umbrella sedge (umbrella sedge; [9]) | Plant response rating (0 to 100), Morningglory (morningglory; Rate 4 g/ha) | Plant response rating (0 to 100), Lambsquarters (lambsquarters [2]; Rate 4 g/ha) | Plant response rating (0 to 100), Velvetleaf (velvetleaf [3]; Rate 1 g/ha)
9: Plant response rating, Soybean (soybean [4]; POSTEMERGENCE, Rate 50 g/ha) | Plant response rating, Velvetleaf (velvetleaf [5]; POSTEMERGENCE, Rate 50 g/ha) | Plant response rating, Velvetleaf (velvetleaf [5]; PREEMERGENCE, Rate 50 g/ha) | Plant response rating, Lambsquarter (lambsquarters [6]; POSTEMERGENCE, Rate 10 g/ha)
7: Plant response rating, Rice (rice; POSTEMERGENCE, Rate 50 g/ha)
8: Plant response rating, Soybean (soybean [4]; POSTEMERGENCE, Rate 10 g/ha)
80: Plant response rating Umbrella sedge (umbrella sedge) | Plant response rating (0 to 100), Soybean (soybean [1]; Rate 16 g/ha) | Plant response rating (0 to 100), Lambsquarters (lambsquarters [2]; Rate 16 g/ha)
90: Plant response rating (0 to 100), Morningglory (morningglory; Rate 16 g/ha)
4: Plant response rating, Cheatgrass (cheatgrass; POSTEMERGENCE, Rate 10 g/ha) | Plant response rating, Cheatgrass (cheatgrass; POSTEMERGENCE, Rate 50 g/ha)
60: Plant response rating Barley Igri (barley)
3: Plant response rating, Rice (rice; PREEMERGENCE, Rate 50 g/ha) | Plant response rating, Cheatgrass (cheatgrass; PREEMERGENCE, Rate 10 g/ha)
